In patent publication US6632921B1, “Seryl-lysyl-based peptide and peptidomimetic inhibitors of N-myristoyl transferase as anti-infective agents” (G. D Searle & Co, priority 1995, dated 2003):

Experiments:
[1] = test system: C. albicans Arf N-myristoylation; assay: Gel shift assay for degree of N-myristoylation of Arf in C. albicans cultures; assay type: cell-based, Candida albicans; details: 200 μM, 24° C., strain MONCA105; for reduction in Arf N-myristoylation: 2 h
Excerpt: N-myristoylation of C. albicans ADP ribosylation factor (Arf), produces a change in its electrophoretic mobility during SDS-polyacrylamide gel electrophoresis. The acylated species migrates more rapidly than the nonmyristoylated species [J. K. Lodge et al, J. Biol. Chem., 269, 2996-3009 (1994)].
Based on these findings, acylation of C. albicans Arf, measured using this protein gel shift assay, was used to define the effects of peptide analog inhibitors of C. albicans NMT on the efficiency of protein N-myristoylation in cultures of this fungal pathogen.
The assay was performed as follows. A single colony of Candida albicans strain MONCA105 NMT, [R. A Weinberg et al, Mol. Micro., in press, (1995)] was innoculated into YPD medium (YPD=1% yeast extract, 2% peptone, 2% dextrose). Cultures were shaken at 24° C. for 12-16 h. Cells were recovered by centrifugation, washed 3 times with sterile PBS, pH 7.4 and resuspended in YPD at an OD600 of 1.0-1.5. Fifty microliters of a 20 mM stock solution of peptide analog (prepared in sterile deionized H2O) were added to a sterile polypropylene tube containing 4.5 mL of fresh YPD medium. Five hundred microliters of the C. albicans culture was then added to the tubes. Controls consisted of no added peptide analog (i.e. water alone).The tubes were incubated at 24° C. with vigorous shaking for 2 hr or 4 hr. For each experiment, duplicate tubes were assayed for each condition and at each time point. Cells were recovered by centrifugation, resuspended in 200 μL of Lysis Buffer (0.125M Tris-HCl, pH 6.8/4% SDS), and transferred to microfuge tubes containing 200 μL of glass beads (bead diameter=425-600 μm, Sigma).The slurry was vortexed 3 times for 1 min each. Between each cycle of vortexing, the tubes were placed on ice for 1 min. The mixture was then placed in a boiling water bath for 10 min, vortexed once again for 1 min and subsequently spun at 10,000×g for 2 min. The cleared supernatant fraction was removed, spun again at 10,000×g for 5 min and the total protein concentration determined. […]

C.trop. = assay: Antifungal susceptibility testing, pH 5.4 assay, different strains of Candida; assay type: cell-based, C.tropicalis; details: Candida tropicalis, 24 hr
C.para. = assay: as above; assay type: cell-based, C.parasilosis; details: 24 hr
human NMT = target: T1, human NMT (Homo sapiens, UniProt P30419); assay: NMT enzyme inhibition assay (radiochemical HPLC end-point), human NMT; assay type: biochemical
T1 construct: made in house; host or cells: E. coli
T1 sequence (P30419 1-416 isoform P30419-2): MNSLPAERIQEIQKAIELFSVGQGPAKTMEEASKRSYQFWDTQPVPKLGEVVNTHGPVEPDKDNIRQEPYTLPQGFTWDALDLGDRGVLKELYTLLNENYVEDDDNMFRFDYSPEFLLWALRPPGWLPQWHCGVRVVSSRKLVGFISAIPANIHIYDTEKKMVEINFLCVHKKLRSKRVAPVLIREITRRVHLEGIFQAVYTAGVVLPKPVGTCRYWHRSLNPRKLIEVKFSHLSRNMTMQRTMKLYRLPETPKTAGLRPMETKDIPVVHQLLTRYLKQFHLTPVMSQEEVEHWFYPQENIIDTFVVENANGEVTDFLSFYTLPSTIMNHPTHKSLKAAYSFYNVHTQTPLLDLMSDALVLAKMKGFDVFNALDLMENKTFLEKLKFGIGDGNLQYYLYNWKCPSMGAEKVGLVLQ
Method: Recombinant Candida albicans and human NMTs were expressed and purified from E. coli using previously described protocols. [D. A. Towler et al, Proc. Natl. Acad. Sci. USA, 84, 2707-2712 (1987); R. C. Weigand et al, J. Biol. Chem., 267, 8591-8598 (1992); R. J. Duronio et al, Proc. Natl. Acad. Sci. USA, 89, 4129-4133 (1992)] The ability of compounds to inhibit Candida NMT enzymatic activity was assessed using a radiochemical HPLC end-point assay as described previously for Saccharomyces cerevisiae and human NMTs. [D. Towler et al, Proc. Natl. Acad. Sci. USA, 83, 2812-2816 (1986); W. J. Rocque et al, J. Biol. Chem., 268, 9964-9971 (1991)] The donor substrate [^3H]myristoyl-coenzyme A was enzymatically synthesized from [^3H]myristic acid (50 Ci/mmol, Amersham, Arlington Heights, Ill.) and coenzyme A (Fluka Chemical Corp., Ronkonkoma, N.Y.), and purified as described previously. [W. J. Rocque et al, J. Biol. Chem., 268, 9964-9971 (1991)] The peptide acceptor substrate GNAASARR-NH2 was prepared by solid-phase peptide synthesis using the t-Boc amino acid methodology, followed by HF treatment and reverse-phase HPLC purification. Inhibitor stock solutions were prepared at 22 mM in DMSO; the final concentration of DMSO in each assay was 0.5% (v/v). […] The reaction was quenched after 10 minutes at 24° C. by the addition of ice-cold MeOH, and the reaction products were separated and measured using C4 reverse-phase HPLC (Vydac 214TP10415; Separations Group, Hesperia, Calif.) and in-line scintillation counting using a Radiomatic A250 (Packard Instruments, Downers Grove, Ill.) and Ecolite(+) (ICN Biomedical, Costa Mesa, Calif.) as the scintillant. Selectivity was determined by calculating the ratio of the IC50 against human NMT to the IC50 against C. albicans NMT.

| SMILES | reduction in Arf N-myristoylation [1] | reduction of Arf acylation ([1]; 4 h) | EC50 (C.trop.) | EC50 (C.para.) | IC50 (human NMT; Comparator Compound A table) | IC50 (human NMT; Table V) |
| --- | --- | --- | --- | --- | --- | --- |
| Cc1nccn1CCCCc1ccc(CC(=O)N[C@H](CO)C(=O)N[C@H](CCCCN)C(=O)N[C@H](CC2CCCCC2)C(=O)O)cc1 [Comparator Compound A, D-Alanine, 3-cyclohexyl-N-[N^2-[N-[[4-[4-(2-methyl-1H-imidazol-1-yl)butyl]phenyl]acetyl]-D-seryl]-D-lysyl]-, bis-trifluoroacetate] | no detectable reduction | no detectable reduction | > 250 µM | > 250 µM | > 1000 µM | – |
| Cc1nccn1CCCCc1ccc(CC(=O)N[C@@H](CO)C(=O)N[C@@H](CCCCN)C(=O)N[C@@H](CC2CCCCC2)C(=O)O)cc1 [Example 2, L-Alanine, 3-cyclohexyl-N-[N^2-[N-[[4-[4-(2-Methyl-1H-imidazol-1-yl)butyl]phenyl]acetyl]-L-seryl]-L-lysyl]-, bis-trifluoroacetate] | ~10% | – | > 250 µM | 40 µM | – | 810 µM |
